From US20190022225A1, “PROTOCOL FOR INCREASING LIFE EXPECTANCY IN A TEST SUBJECT” (Mayo Foundation for Medical Education and Research, priority 2015, published 2019) come the findings set out here.

Assay [1] relates to senescent mouse embryonic fibroblasts (MEF). Briefly: Cell count survival assay of Nutlin-3a on irradiation-induced senescent MEFs. It is filed as cell-based. Particulars: 10 Gy irradiated MEF; Nutlin-3a 0, 2.5, 10 μM for 9 days. The protocol:
(§1) Foreskin fibroblast cell lines HCA2 and BJ, lung fibroblast cell line IMR90, and mouse embryonic fibroblasts were seeded in six-well plates and induced to senesce with 10 Gy of ionizing radiation (IR) or a 24 hr treatment with doxorubicin (Doxo). Senescent phenotype was allowed to develop for at least 7 days, at which point a cell count was made to determine the baseline number of cells. Nutlin-3a treatment was then initiated for a period of at least 9 days. Media alone or media with drug as appropriate was refreshed at least every three days. At the end of the assay time period, cells are counted. Each condition was seeded in three plate wells and counted independently. Initial cell count serves as a control to determine the induction of senescence, as compared to the last day count without nutlin treatment. Initial non-senescent cell count serves as a proxy to determine Nutlin-3a toxicity.
Foreskin fibroblast cell lines HCA2 and BJ, lung fibroblast cell line IMR90, and mouse embryonic fibroblasts were exposed to 10 Gy of ionizing radiation (IR) to induce senescence. […] Percent survival was calculated as [cell count on day 9 of Nutlin-3a treatment/initial cell count on first day of Nutlin-3a treatment].

Assay [2] concerns doxorubicin-induced senescent foreskin fibroblasts (HCA2) and aortic endothelial cells (Endo Aort). The experiment in a line: Cell count survival assay of Nutlin-3a on doxorubicin-induced senescent cells. It is filed as cell-based. Particulars: doxorubicin 250 nM 24 h; HCA2 9 days, aortic endothelial cells 11 days of Nutlin-3a. The protocol: as §1
Foreskin fibroblasts (HCA2) and aortic endothelial cells (Endo Aort) were treated with doxorubicin (250 nM) for one day (24 hours) to induce senescence (see FIG. 1). Eight days following doxorubicin treatment, Nutlin-3a treatment was initiated. HCA2 cells were exposed to Nutlin-3a for 9 days, and aortic endothelial cells were exposed to Nutlin-3a for 11 days. […] Percent survival was calculated as [cell count on the last day of Nutlin-3a treatment/initial cell count on first day of Nutlin-3a treatment].

For assay [3], the system named is non-senescent foreskin fibroblasts (HCA2), lung fibroblasts (IMR90), mouse embryonic fibroblasts (MEF). Briefly: Nutlin-3a toxicity, cell counts of non-senescent fibroblasts. Particulars: 0, 2.5, 10 μM, 9 days. It is filed as cell-based, human; mouse. The protocol:
Non-senescent foreskin fibroblasts (HCA2), lung fibroblasts (IMR90), and mouse embryonic fibroblasts (MEF) were treated with varying concentrations (0, 2.5 μM, and 10 μM) of Nutlin-3a for a period of 9 days to assess Nutlin-3a toxicity. Cell counts were taken at the start (NS start) and end of Nutlin-3a treatment. The difference between counts of cells not treated with Nutlin-3a on day 9 (NS 0) and cell counts determined at day zero (NS start) reflects the cell growth over the indicated time period. […] Decrease in apparent survival between NS 0 and NS 2.5 and between NS 0 and NS 10 reflects a decrease in cell growth. Without wishing to be bound by theory, Nutlin-3a may stabilize p53, leading to cell cycle growth arrest.

For assay [4], the system named is IL-6 in senescent IMR90 cells. The experiment in a line: IL-6 immunofluorescence and ELISA in irradiated senescent IMR90 cells treated with Nutlin-3a. It counts as cell-based, human. The protocol: Primary human fibroblast (IMR90) cells were induced to senesce by applying 10 Gy of irradiation. Seven days after irradiation (Day 0), cells were treated with 10 μM Nutlin-3a or vehicle (DMSO) for nine days (Day 9). The drug or vehicle was refreshed every three days. Drug/vehicle was removed at Day 9 and the cells were cultured for an additional three days (Day 12). Cells were then fixed with 4% paraformaldehyde and stained by immunofluorescence with a specific anti-IL-6 antibody (R&D, AF-206-NA). Cells were counterstained with DAPI for nuclear visualization. The percent IL-6 positive cells is illustrated in FIG. 12A. IL-6 positive cells were determined in an unbiased manner using CellProfiler software. Three different cultures were assessed. Non-senescent cells had no detectable cells IL-6 production while senescent cells were about 8% positive at day 9 after vehicle (DMSO) treatment (16 days after irradiation). […] At day 12, 3 days after Nutlin-3a was removed and 19 days after irradiation, IL-6 positive cells in the vehicle control were about 9% and Nutlin3a treated cells were less than 1% positive for IL-6.
In another experiment, IMR90 cells were induced to senesce by irradiation (10 Gy). Seven days after irradiation, cells were treated with 10 μM Nutlin-3a or vehicle (DMSO) for nine days (Day 9). The drug or vehicle was refreshed every three days. Drug/vehicle was removed at Day 9 and the cells were cultured for an additional six days. Conditioned media from the treated cells was collected, and IL-6 measurement by ELISA was performed (Perkin Elmer, AL223F). IL-6 levels in culture media were determined by ELISA using a kit according to manufacturer's instructions (AL223F, Perkin Elmer). Cells were fixed with 4% paraformaldehyde and stained by immunofluorescence with a specific anti-IL-6 antibody (R&D, AF-206-NA). The IL-6 level determined by ELISA was normalized to the number of cells in each well. The data are presented in FIG. 22C as a relative level of IL-6 in the treated cells compared to the level in non-senescent cells (NS). […]
In general terms: ELISA stands for enzyme-linked immunosorbent assay.

As for `COc1ccc(C2=N[C@@H](c3ccc(Cl)cc3)[C@@H](c3ccc(Cl)cc3)N2C(=O)N2CCNC(=O)C2)c(OC(C)C)c1` [Nutlin-3a], in assay [1], the “cell survival of senescent MEF (percent survival)” value is recorded as “reduced cell survival”. The “sensitivity of doxorubicin-induced senescent cells (percent survival)” value in assay [2] is recorded as “sensitive”. Moreover, the “toxicity to non-senescent fibroblasts (percent growth)” value in assay [3] is listed as “reduces proliferation but is non-toxic”. Moreover, in assay [4] (10 μM for 9 days, then up to 6 days without drug), the “IL-6 level (ELISA), fold lower than DMSO treated senescent cells” value is 5-9 fold. Moreover, the “percent IL-6 positive cells” value is listed as “below 5%” in assay [4] (10 μM, day 9 (16 days after irradiation)) and “less than 1%” in assay [4] (day 12, 3 days after drug removal).
